Experimental data taken from ChEMBL document CHEMBL1156502, “Stabilized immune modulatory RNA compounds as agonists of Toll-like receptors 7 and 8” (Proc Natl Acad Sci U S A, 2007).
Calls of active or inactive are those of the source. The calls are words filed in the database; no cut-off is given here.

What was measured:
[1] = target: T1, Toll-like receptor 8 (Homo sapiens) (UniProt Q9NR97); test: Activation of human TLR8 expressed in HEK293 cells assessed as increase in NF-kappaB activation at 100 ug/ml by SEAP assay; type: cell-based
T1 sequence (whole entry): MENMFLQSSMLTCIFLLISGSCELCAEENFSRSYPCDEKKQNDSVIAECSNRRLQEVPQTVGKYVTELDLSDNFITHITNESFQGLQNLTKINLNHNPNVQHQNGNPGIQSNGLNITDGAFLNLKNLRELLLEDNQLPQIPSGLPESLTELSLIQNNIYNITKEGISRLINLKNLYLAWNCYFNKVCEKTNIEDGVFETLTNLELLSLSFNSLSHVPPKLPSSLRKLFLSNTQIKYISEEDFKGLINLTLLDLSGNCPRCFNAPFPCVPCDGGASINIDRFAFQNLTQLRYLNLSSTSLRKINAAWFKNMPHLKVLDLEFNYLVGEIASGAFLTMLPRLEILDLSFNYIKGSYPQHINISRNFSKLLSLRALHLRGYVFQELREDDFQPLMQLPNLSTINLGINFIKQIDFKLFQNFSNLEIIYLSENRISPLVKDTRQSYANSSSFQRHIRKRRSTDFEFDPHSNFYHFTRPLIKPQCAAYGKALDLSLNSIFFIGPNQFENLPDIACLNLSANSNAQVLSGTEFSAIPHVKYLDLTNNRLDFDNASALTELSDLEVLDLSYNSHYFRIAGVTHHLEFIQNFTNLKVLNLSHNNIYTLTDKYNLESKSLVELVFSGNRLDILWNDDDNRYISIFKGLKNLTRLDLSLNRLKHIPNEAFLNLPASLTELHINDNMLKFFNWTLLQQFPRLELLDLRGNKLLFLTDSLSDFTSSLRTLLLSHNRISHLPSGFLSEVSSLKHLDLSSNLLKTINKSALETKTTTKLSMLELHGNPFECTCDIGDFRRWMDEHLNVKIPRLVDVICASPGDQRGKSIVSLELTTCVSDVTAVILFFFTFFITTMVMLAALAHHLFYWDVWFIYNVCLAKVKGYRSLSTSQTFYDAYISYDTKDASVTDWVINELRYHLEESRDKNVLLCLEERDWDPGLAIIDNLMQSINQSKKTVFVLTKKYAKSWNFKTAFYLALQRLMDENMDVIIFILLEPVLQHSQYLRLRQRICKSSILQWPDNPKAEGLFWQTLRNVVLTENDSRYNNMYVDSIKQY

spleen [2] = test: Induction of cytokine secretion in C57BL/6 mouse spleen cells at 100 ug/ml after 24 hrs by Luminex Multiplex assay; type: functional, cell-based
Dendritic cell = test: Induction of IFNalpha secretion in human plasmacytoid dendritic cells at 200 ug/ml after 24 hrs by Luminex Multiplex assay; type: functional
spleen [3] = test: Induction of chemokine secretion in C57BL/6 mouse spleen cells 100 ug/ml after 24 hrs by Luminex Multiplex assay; type: functional, cell-based
[4] = target: T2, Toll-like receptor 7 (Homo sapiens) (UniProt Q9NYK1); test: Activation of human TLR7 expressed in HEK293 cells assessed as increase in NF-kappaB activation at 100 ug/ml by SEAP assay; type: cell-based
T2 sequence (whole entry): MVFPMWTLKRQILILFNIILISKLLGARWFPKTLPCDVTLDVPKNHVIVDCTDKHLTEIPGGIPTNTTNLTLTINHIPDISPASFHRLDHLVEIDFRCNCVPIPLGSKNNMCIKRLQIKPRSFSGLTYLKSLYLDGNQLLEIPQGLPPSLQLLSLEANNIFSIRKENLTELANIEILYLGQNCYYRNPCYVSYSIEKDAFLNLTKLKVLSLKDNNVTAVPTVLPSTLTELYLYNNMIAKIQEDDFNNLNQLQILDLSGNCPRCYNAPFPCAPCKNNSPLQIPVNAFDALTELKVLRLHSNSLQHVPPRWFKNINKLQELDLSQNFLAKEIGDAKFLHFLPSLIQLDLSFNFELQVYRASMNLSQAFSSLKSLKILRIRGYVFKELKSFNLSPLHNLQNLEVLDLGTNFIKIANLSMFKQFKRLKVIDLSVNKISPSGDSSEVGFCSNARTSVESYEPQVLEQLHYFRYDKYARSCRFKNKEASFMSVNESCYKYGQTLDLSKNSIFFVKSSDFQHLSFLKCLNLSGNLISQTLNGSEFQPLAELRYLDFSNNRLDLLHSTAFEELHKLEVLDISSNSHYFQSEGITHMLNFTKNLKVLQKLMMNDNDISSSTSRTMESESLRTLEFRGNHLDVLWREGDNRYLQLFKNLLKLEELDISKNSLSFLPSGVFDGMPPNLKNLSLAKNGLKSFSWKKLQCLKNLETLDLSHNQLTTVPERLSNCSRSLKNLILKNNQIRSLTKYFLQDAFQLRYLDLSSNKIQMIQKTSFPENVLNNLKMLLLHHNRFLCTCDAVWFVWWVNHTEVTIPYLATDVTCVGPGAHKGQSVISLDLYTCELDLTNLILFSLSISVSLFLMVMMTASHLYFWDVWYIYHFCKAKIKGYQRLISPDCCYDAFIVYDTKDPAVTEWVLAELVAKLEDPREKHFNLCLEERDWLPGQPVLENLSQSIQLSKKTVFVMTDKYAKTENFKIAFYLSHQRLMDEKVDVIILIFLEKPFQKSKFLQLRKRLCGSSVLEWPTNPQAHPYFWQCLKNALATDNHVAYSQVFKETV

PBMC [5] = test: Induction of IL12 secretion in human PBMC after 24 hrs by Luminex Multiplex assay; type: functional, cell-based
PBMC [6] = test: Induction of IFNalpha secretion in human PBMC after 24 hrs by Luminex Multiplex assay; type: functional, cell-based
PBMC [7] = test: Induction of IL1-beta secretion in human PBMC after 24 hrs by Luminex Multiplex assay; type: functional, cell-based
[8] = Stability in 1% human serum assessed as full length product after 10 mins; type: ADME, cell-free; conditions: read-out: Stability
PBMC [9] = test: Induction of IL2R secretion in human PBMC after 24 hrs by Luminex Multiplex assay; type: functional, cell-based
PBMC [10] = test: Induction of IFN-gamma secretion in human PBMC after 24 hrs by Luminex Multiplex assay; type: functional, cell-based
PBMC [11] = test: Induction of IL10 secretion in human PBMC after 24 hrs by Luminex Multiplex assay; type: functional, cell-based

Activity [1] | Activity [4] | remaining at 10 min [8] [%] | Compound | Activity (spleen [2]) | Activity (Dendritic cell) | Activity (spleen [3]) | Activity (PBMC [5]) | Activity (PBMC [6]) | Activity (PBMC [7]) | Activity (PBMC [9]) | Activity (PBMC [10]) | Activity (PBMC [11])
Active | Active | – | Nc1ccn([C@@H]2O[C@H](COP(O)(=S)O[C@H]3[C@@H](O)[C@H](n4ccc(=O)[nH]c4=O)O[C@@H]3COP(O)(=S)O[C@H]3[C@@H](O)[C@H](n4ccc(=O)[nH]c4=O)O[C@@H]3COP(O)(=S)O[C@H]3[C@@H](O)[C@H](n4ccc(N)nc4=O)O[C@@H]3COP(O)(=S)O[C@H]3[C@@H](O)[C@H](n4ccc5c(=O)[nH]c(N)nc54)O[C@@H]3COP(O)(=S)O[C@H]3[C@@H](O)[C@H](n4ccc(=O)[nH]c4=O)O[C@@H]3COP(O)(=S)O[C@H]3[C@@H](O)[C@H](n4ccc(N)nc4=O)O[C@@H]3COP(O)(=S)O[C@H]3[C@@H](O)[C@H](n4ccc5c(=O)[nH]c(N)nc54)O[C@@H]3COP(O)(=S)O[C@H]3[C@@H](O)[C@H](n4ccc(=O)[nH]c4=O)O[C@@H]3CO)[C@@H](OP(O)(=S)OC[C@H]3O[C@@H](n4ccc(=O)[nH]c4=O)[C@H](O)[C@@H]3OP(O)(=S)OC[C@H]3O[C@@H](n4ccc5c(=O)[nH]c(N)nc54)[C@H](O)[C@@H]3OP(O)(=S)OCCC(O)CCOP(O)(=S)O[C@H]3[C@@H](O)[C@H](n4ccc5c(=O)[nH]c(N)nc54)O[C@@H]3COP(O)(=S)O[C@H]3[C@@H](O)[C@H](n4ccc(=O)[nH]c4=O)O[C@@H]3COP(O)(=S)O[C@H]3[C@@H](O)[C@H](n4ccc(N)nc4=O)O[C@@H]3COP(O)(=S)O[C@H]3[C@@H](O)[C@H](n4ccc(=O)[nH]c4=O)O[C@@H]3COP(O)(=S)O[C@H]3[C@@H](O)[C@H](n4ccc(=O)[nH]c4=O)O[C@@H]3COP(O)(=S)O[C@H]3[C@@H](O)[C@H](n4ccc(N)nc4=O)O[C@@H]3COP(O)(=S)O[C@H]3[C@@H](O)[C@H](n4ccc5c(=O)[nH]c(N)nc54)O[C@@H]3COP(O)(=S)O[C@H]3[C@@H](O)[C@H](n4ccc(=O)[nH]c4=O)O[C@@H]3COP(O)(=S)O[C@H]3[C@@H](O)[C@H](n4ccc(N)nc4=O)O[C@@H]3COP(O)(=S)O[C@H]3[C@@H](O)[C@H](n4ccc5c(=O)[nH]c(N)nc54)O[C@@H]3COP(O)(=S)O[C@H]3[C@@H](O)[C@H](n4ccc(=O)[nH]c4=O)O[C@@H]3CO)[C@H]2O)c(=O)n1 (some centres undefined) | Dose-dependent effect | Active | Dose-dependent effect | – | – | – | – | – | –
Active | inactive | 56 | Nc1ccn([C@@H]2O[C@H](COP(O)(=S)O[C@H]3[C@@H](O)[C@H](n4ccc(=O)[nH]c4=O)O[C@@H]3COP(O)(=S)O[C@H]3[C@@H](O)[C@H](n4ccc(=O)[nH]c4=O)O[C@@H]3COP(O)(=S)O[C@H]3[C@@H](O)[C@H](n4ccc(N)nc4=O)O[C@@H]3COP(O)(=S)O[C@H]3[C@@H](O)[C@H](n4cnc5c(=O)[nH]c(N)nc54)O[C@@H]3COP(O)(=S)O[C@H]3[C@@H](O)[C@H](n4ccc(=O)[nH]c4=O)O[C@@H]3COP(O)(=S)O[C@H]3[C@@H](O)[C@H](n4ccc(N)nc4=O)O[C@@H]3COP(O)(=S)O[C@H]3[C@@H](O)[C@H](n4cnc5c(=O)[nH]c(N)nc54)O[C@@H]3COP(O)(=S)O[C@H]3[C@@H](O)[C@H](n4ccc(=O)[nH]c4=O)O[C@@H]3CO)[C@@H](OP(O)(=S)OC[C@H]3O[C@@H](n4ccc(=O)[nH]c4=O)[C@H](O)[C@@H]3OP(O)(=S)OC[C@H]3O[C@@H](n4cnc5c(=O)[nH]c(N)nc54)[C@H](O)[C@@H]3OP(O)(=S)OCC(O)COP(O)(=S)O[C@H]3[C@@H](O)[C@H](n4cnc5c(=O)[nH]c(N)nc54)O[C@@H]3COP(O)(=S)O[C@H]3[C@@H](O)[C@H](n4ccc(=O)[nH]c4=O)O[C@@H]3COP(O)(=S)O[C@H]3[C@@H](O)[C@H](n4ccc(N)nc4=O)O[C@@H]3COP(O)(=S)O[C@H]3[C@@H](O)[C@H](n4ccc(=O)[nH]c4=O)O[C@@H]3COP(O)(=S)O[C@H]3[C@@H](O)[C@H](n4ccc(=O)[nH]c4=O)O[C@@H]3COP(O)(=S)O[C@H]3[C@@H](O)[C@H](n4ccc(N)nc4=O)O[C@@H]3COP(O)(=S)O[C@H]3[C@@H](O)[C@H](n4cnc5c(=O)[nH]c(N)nc54)O[C@@H]3COP(O)(=S)O[C@H]3[C@@H](O)[C@H](n4ccc(=O)[nH]c4=O)O[C@@H]3COP(O)(=S)O[C@H]3[C@@H](O)[C@H](n4ccc(N)nc4=O)O[C@@H]3COP(O)(=S)O[C@H]3[C@@H](O)[C@H](n4cnc5c(=O)[nH]c(N)nc54)O[C@@H]3COP(O)(=S)O[C@H]3[C@@H](O)[C@H](n4ccc(=O)[nH]c4=O)O[C@@H]3CO)[C@H]2O)c(=O)n1 (some centres undefined) | – | – | – | Dose-dependent effect | Dose-dependent effect | Dose-dependent effect | Dose-dependent effect | Dose-dependent effect | Dose-dependent effect
